Each block holds one compound with its values, some of them ahead of it.
Assays:
fish = details: 96 hr LC50 (fish); binary mixtures: worse actor; cited from earlier work
[1] = NOEC or ECx; binary mixtures: worse actor; cited from earlier work
[2] = binary mixtures: worse actor; cited from earlier work
[3] = binary mixtures: worse actor; cited from earlier work; remark: listed apart in the source
[4] = binary mixtures: score of the worse actor of the two; cited from earlier work
[5] = specific target organ toxicity, single exposure; binary mixtures: worse actor; cited from earlier work
[6] = binary mixtures: score of the worse actor of the two; cited from earlier work; remark: listed apart in the source
[7] = binary mixtures: score of the worse actor of the two; cited from earlier work; remark: listed apart in the source
[8] = Evaluation of the switching behaviour of ASHS systems (carboxylic acid/base/water) under air and 1 bar of CO2; type: physicochemical; details: for Behaviour of the system after CO2 addition / pH under 1 bar of CO2 / pH under air: 20° C.
Method: Base solutions were prepared by combining the desired base and water (mass for components measured in an analytical scale) into either a 10 or 25 mL graduated cylinder (containing a magnetic stir bar) depending on the final volume of the mixture obtained. The carboxylic acid (mass measured using an analytical balance prior to addition) being studied was added to the base solution, and the mixture was mixed with the help of a magnetic stir plate. The amount of base and water used were selected based on the acid:base:water ratio desired. Experiments were carried out using stoichiometric and substoichiometric amounts of the base relative to the number of mols of acid added. In addition, the quantity of water used was adjusted based on the acid:water mass ratio desired. A typical experiment would contain 1 g of the carboxylic acid; between 0.4 and 1 mol of base per mol of acid; and a water mass varying from 1 to 9.5 g.
During a typical experiment, CO2 would be added for approximately 2 h at atmospheric pressure. At the end of the 2 h, the sparge tube would be removed, and the number and volume of the phases obtained would be recorded. The pH was once again recorded. For mixtures with only 1 phase, the pH of that phase was recorded. While for mixtures with 2 phases, the pH of the aqueous phase was recorded.
In the systems in which the base:acid mole ratio and the water:acid mass ratio were being studied, a slight modification from this method was used. The acid being tested (1 g) was mixed with 1 g of water and the required amount of NaOH (based on the acid:base molar ratio desired) to prepare the mixture. […]
The base solution was then added to the carboxylic acid, and the next steps followed the procedure previously described.

[9] = Switching behaviour of ASHS systems under elevated pressures of CO2; type: physicochemical; details: EHA:NaOH:H2O combinations that did not become biphasic upon 1 bar of CO2
Method: The sight gauge was kept at a constant temperature (20° C.) in a water bath. The solutions were maintained under stirring due to a magnetic stir bar controlled by a magnetic stir plate. To maximize the stirring, the vessel was placed on its side (horizontal position). The mixture was then pressurized to 10 bar of CO2 in the sight gauge. In order to determine the volume of the phases obtained, measurements of the height of the water-rich and the carboxylic acid phase were obtained using a cathetometer while the vessel was in a vertical position. The relationship between height and internal volume on the sight gauge is known. The vessel was then slowly depressurized. The phases were collected using a glass pipette.

[10] = EHA as solvent
[11] = base 3DMAP, base:acid mole ratio 0.50:1, H2O:acid mass ratio 2.5:1
[12] = base DMEA, base:acid mole ratio 0.55:1, H2O:acid mass ratio 2.5:1
[13] = base Jeffamine D-230 (two moles acid per mole D-230), H2O:acid mass ratio 12:1
[14] = base Jeffamine D-230 (two moles acid per mole D-230), H2O:acid mass ratio 15:1
[15] = base MDEA, base:acid mole ratio 0.55:1, H2O:acid mass ratio 2.5:1
[16] = base TEA, MDEA, DMEA or 3-DMAP, base:acid mol ratio 1:1, H2O:acid mass ratio 1:1
[17] = base TEA, MDEA, DMEA or 3-DMAP, base:acid mol ratio 1:1, H2O:acid mass ratio 2:1
[18] = base TEA, MDEA, DMEA or 3-DMAP, base:acid mol ratio 1:1, H2O:acid mass ratio 6:1
[19] = base TEA, MDEA, DMEA or 3-DMAP, base:acid mol ratio 1:1, H2O:acid mass ratio 15:1
[20] = base TEA, base:acid mole ratio 0.55:1, H2O:acid mass ratio 2.5:1
[21] = substoichiometric aqueous NaOH, 0.6 to 0.7 equivalents of base

Compound: CCCCN(CCO)CCCC [Bu2NCH2CH2OH, N,N-dibutylethanolamine]
Acute aquatic toxicity, GHS category (fish): 3 (category 3 (H402) means 10 < 96 hr LC50 (fish) ≤ 100 mg/L) | Chronic aquatic toxicity, GHS category [1]: 3 (category 3 (H412) means 0.1 < NOEC or ECx ≤ 1) | Skin irritation, GHS category [2]: 1C | Eye irritation, GHS category [3]: 1 | Acute toxicity (oral), GHS category [4]: 4 (category 4 (H302) means 300 < LD50 ≤ 2000 mg/kg) | Organ toxicity, GHS category [5]: 3 | Acute toxicity (dermal), GHS category [6]: 4 (category 4 (H312) means 1000 < LD50 ≤ 2000 mg/kg)

Compound: CN(C)C1CCCCC1 [CyNMe2]
Acute aquatic toxicity, GHS category (fish): 1 (Category 1 (H400) means 96 hr LC50 (fish) ≤ 1.0 mg/L) | Acute toxicity (oral), GHS category [4]: 3 (Category 3 (H301) means 50 < LD50 ≤ 300 mg/kg) | Acute toxicity (inhalation), GHS category [7]: 3 (category 3 (H331) means 2 < LC50 ≤ 10 mg/L) | Acute toxicity (dermal), GHS category [6]: 3 (Category 3 (H311) means 200 < LD50 ≤ 1000 mg/kg)

pH before the addition of CO2 ([8]; 0.8:1 NaOH:EHA mole ratio, 3:1 H2O:EHA mass ratio): 7.2 | Behaviour of the system ([8]; 0.8:1 NaOH:EHA mole ratio, 3:1 H2O:EHA mass ratio, 1 bar CO2): did not present a switchable behaviour | pH before the addition of CO2 ([8]; 0.9:1 NaOH:EHA mole ratio, 1:1 H2O:EHA mass ratio): 7.5 | pH before the addition of CO2 ([8]; 0.9:1 NaOH:EHA mole ratio, 3:1 H2O:EHA mass ratio): 7.2 | pH before the addition of CO2 ([8]; 0.9:1 NaOH:EHA mole ratio, 4:1 H2O:EHA mass ratio): 7.1 | pH before the addition of CO2 ([8]; 0.9:1 NaOH:EHA mole ratio, 5:1 H2O:EHA mass ratio): 7.2 | Behaviour of the system ([8]; 0.9:1 NaOH:EHA mole ratio, 5:1 H2O:EHA mass ratio, 1 bar CO2): presented a switchable behaviour | Behaviour of the system ([8]; 0.9:1 NaOH:EHA mole ratio, H2O:EHA mass ratio from 1:1 to 3:1, 1 bar of CO2): do not present a switchable behaviour | Behaviour of the system ([8]; 0.9:1 NaOH:EHA mole ratio, extra water beyond 4:1 H2O:EHA mass ratio): become biphasic under air | pH under air, lowest value once extra water is added ([8]; 0.9:1 NaOH:EHA mole ratio, more water than 4:1, pH decreases from 7.1): 6.6 | Behaviour of the system ([8]; 2.5:1 H2O:EHA mass ratio, 0.65 NaOH:EHA mol ratio, 1 bar CO2): switchable behaviour | Behaviour of the system ([8]; 2.5:1 H2O:EHA mass ratio, 0.70 NaOH:EHA mol ratio, 1 bar CO2): remains monophasic after CO2 addition | Behaviour of the system after CO2 addition ([8]; base 3DMAP, base:acid mole ratio 0.50:1, H2O:acid mass ratio 2.5:1, 1 bar CO2, threshold 50 vol % recovered): Phase separation above 50 | pH under 1 bar of CO2 [8, 11]: 6.64 | pH under air [8, 11]: 6.53 | Behaviour of the system after CO2 addition ([8]; base DMEA, base:acid mole ratio 0.55:1, H2O:acid mass ratio 2.5:1, 1 bar CO2, threshold 50 vol % recovered): Phase separation above 50 | pH under 1 bar of CO2 [8, 12]: 6.69 | pH under air [8, 12]: 6.57 | Behaviour of the system after CO2 addition ([8]; base Jeffamine D-230 (two moles acid per mole D-230), H2O:acid mass ratio 12:1, 1 bar CO2, partial = acid recovered smaller than mass added): Partial phase separation | pH under 1 bar of CO2 [8, 13]: 6.94 | pH under air [8, 13]: 6.98 | Behaviour of the system after CO2 addition ([8]; base Jeffamine D-230 (two moles acid per mole D-230), H2O:acid mass ratio 15:1, 1 bar CO2, partial = acid recovered smaller than mass added): Partial phase separation | pH under 1 bar of CO2 [8, 14]: 6.74 | pH under air [8, 14]: 8.34 | Phase behaviour upon addition of 1 bar of CO2 ([8]; base Jeffamine D-230, TEA, MDEA, DMEA or 3DMAP, base:acid mole ratio 1:1, water:acid mass ratio 15:1 and other ratios): no phase separation was observed | Behaviour of the system after CO2 addition ([8]; base MDEA, base:acid mole ratio 0.55:1, H2O:acid mass ratio 2.5:1, 1 bar CO2, threshold 50 vol % recovered): No phase separation | pH under 1 bar of CO2 [8, 15]: 6.61 | pH under air [8, 15]: 6.50 | Behaviour of the system ([8]; base NaOH, 2:1 H2O:acid mass ratio, 1 bar CO2, narrow range of base:acid ratio): successful switchable behaviour | Behaviour of the system ([8]; base NaOH, carboxylic acid:H2O mass ratio 1:2.5, carboxylic acid:NaOH mol ratio 1:0.6): Switchable | Behaviour of the system after CO2 addition ([8]; base TEA, MDEA, DMEA or 3-DMAP, base:acid mol ratio 1:1, H2O:acid mass ratio 1:1, 1 bar CO2): No phase separation | pH under 1 bar of CO2 [8, 16]: 7.50-8.05 | pH under air [8, 16]: 7.50-8.30 | Behaviour of the system after CO2 addition ([8]; base TEA, MDEA, DMEA or 3-DMAP, base:acid mol ratio 1:1, H2O:acid mass ratio 2:1, 1 bar CO2): No phase separation | pH under 1 bar of CO2 [8, 17]: 7.20-7.60 | pH under air [8, 17]: 8.00-8.15 | Behaviour of the system after CO2 addition ([8]; base TEA, MDEA, DMEA or 3-DMAP, base:acid mol ratio 1:1, H2O:acid mass ratio 6:1, 1 bar CO2): No phase separation | pH under 1 bar of CO2 [8, 18]: 6.20-6.70 | pH under air [8, 18]: 7.50-8.10 | Behaviour of the system after CO2 addition ([8]; base TEA, MDEA, DMEA or 3-DMAP, base:acid mol ratio 1:1, H2O:acid mass ratio 15:1, 1 bar CO2): No phase separation | pH under 1 bar of CO2 [8, 19]: 6.60-6.80 | pH under air [8, 19]: 6.80-7.90 | Behaviour of the system after CO2 addition ([8]; base TEA, base:acid mole ratio 0.55:1, H2O:acid mass ratio 2.5:1, 1 bar CO2): No phase separation | pH under 1 bar of CO2 [8, 20]: 6.53 | pH under air [8, 20]: 6.48 | Phase behaviour upon addition of CO2 [8, 21]: phase separation was observed | Phases under air [8, 21]: one phase | Behaviour upon the addition of 10 bar of CO2 [9]: successful switchable behaviour | maximum EPS loading that still allows the next steps [10]: 5 wt %
Compound: CCCCC(CC)C(=O)O (centres unmarked) [EHA, 2-ethylhexanoic acid]
Behaviour of the system ([8]; base NH4OH, 2:1 H2O:acid mass ratio, 1 bar CO2): phase switchable behaviour was not observed | Behaviour of the system ([8]; base pyridine, 2:1 H2O:acid mass ratio): the acid remains as a separate phase under air

From patent publication US12605653B2, “Anionic switchable hydrophilicity solvents” (QUEEN'S UNIVERSITY AT KINGSTON, priority 2022, dated 2026)
